Each structure is given as a SMILES string. Where two headings read alike, the source gives them in different places. Where only a bound is given, the exact number is not on record here.

The target in series [1] is T1, hPXR (Homo sapiens (Human), UniProt O75469). The series can be described thus: cell-based hPXR agonistic assay. As to conditions: for Agonist (% activation at 10 μM): rifampicin at 10 μM as 100% activation, DMSO (0.3%) as 0%.
Series [2] addresses T1, hPXR. Kind of series: cell-based hPXR antagonistic assay. As to conditions: for inhibition at 10 µM: read-out: Antagonist (% inhibition at 10 μM).
The target in series [3] is T1, hPXR. The series can be described thus: cell-based hPXR inverse agonistic assay.
Series [4] concerns the target T1, hPXR. Kind of series: hPXR binding assay. The conditions noted are these: for inhibition at 10 µM: read-out: Binding (% inhibition at 10 μM).
Setting [5] is: read-out: Binding (IC50/μM), hPXR binding assay.

T1 sequence (O75469 whole entry): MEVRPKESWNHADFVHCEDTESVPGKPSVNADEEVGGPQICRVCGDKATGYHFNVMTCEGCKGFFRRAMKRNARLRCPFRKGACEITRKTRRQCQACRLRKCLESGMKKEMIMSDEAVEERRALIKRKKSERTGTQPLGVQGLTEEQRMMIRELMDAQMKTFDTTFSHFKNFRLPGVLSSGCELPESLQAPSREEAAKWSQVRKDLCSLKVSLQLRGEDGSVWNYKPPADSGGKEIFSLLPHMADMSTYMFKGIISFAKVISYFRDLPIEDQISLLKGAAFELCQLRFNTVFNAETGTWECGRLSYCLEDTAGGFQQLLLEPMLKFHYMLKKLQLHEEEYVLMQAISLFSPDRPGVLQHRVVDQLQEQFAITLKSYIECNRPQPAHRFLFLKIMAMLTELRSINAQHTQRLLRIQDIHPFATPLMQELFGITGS

In the case of `CCCCOc1ccc(C(C)(C)C)cc1NC(=O)c1nnn(-c2ccc3c(c2)OCO3)c1C` [H18], the “Agonist (% activation at 10 μM)” value in series [1] was “(43 ± 8)%”. Further, the EC50 in series [1] (read-out: Agonist (EC50/μM), cell-based hPXR agonistic assay) was 4.61 ± 1.18 µM. For the same compound, the IC50 in series [2], in series [3] and in series [4] was above 30 µM in each case.

`CCCC(CC)Oc1ccc(C(C)(C)C)cc1NC(=O)c1nnn(-c2ccccc2OC)c1C` (stereo not shown) [I1] gave an EC50 in series [1] of 0.01 µM. Moreover, in series [1], the “Agonist (% activation at 10 μM)” value is “(8 ± 2)%”. The figures for the IC50 in series [2], in series [3] and in series [4] (setting [5]) were 0.031 µM, above 30 µM and 0.0062 ± 0.0001 µM, respectively. The results for the inhibition at 10 µM in series [2] and in series [4] were 84% and 89%, respectively.

In series [1], `CCCC(C)Oc1ccc(C(C)(C)C)cc1NC(=O)c1nnn(-c2ccccc2OC)c1C` (stereo not shown) [I2] came in with an EC50 of 0.049 ± 0.008 µM. The “Agonist (% activation at 10 μM)” value in series [1] is “(23 ± 19)%”. The values for the IC50 in series [2], in series [3] and in series [4] (setting [5]) were 0.032 µM, above 30 µM and 0.0072 ± 0.0001 µM, respectively. The inhibition (in general, the relative decrease from the control value, in per cent) at 10 µM was 78% in series [2] and 88% in series [4].

`CCC(C)Oc1ccc(C(C)(C)C)cc1NC(=O)c1nnn(-c2ccccc2OC)c1C` (stereo not shown) [I3] came in with an EC50 in series [1] of 0.066 ± 0.013 µM. Also, in series [1], the “Agonist (% activation at 10 μM)” value is “(25 ± 3)%”. The IC50 in series [2] is 0.061 ± 0.011 µM; in series [3], above 30 µM; in series [4] (setting [5]) it was 0.0085 ± 0.0011 µM. Further, the inhibition at 10 µM in series [2] came out at 66%; in series [4], 88%.

In series [1], `COc1ccc(OC)c(-n2nnc(C(=O)Sc3ccc(NC(C)=O)cc3)c2C)c1` [K2] yielded an EC50 above 30 µM. Besides, the IC50 in series [2] was above 30 µM; in series [3], above 30 µM; in series [4] (setting [5]), 8.47 ± 0.78 µM. For the same compound, the inhibition at 10 µM in series [4] turned out to be 38%.

Turning to `COc1ccc(OC)c(-n2nnc(NC(=O)Nc3ccc(C(C)(C)C)cc3)c2C)c1` [K3], in series [1], the EC50 was 3.39 ± 0.14 µM. In addition, in series [1], the “Agonist (% activation at 10 μM)” value was “(61 ± 4)%”. In addition, the IC50 in series [2], in series [3] and in series [4] was above 30 µM each time.

In series [1], `COc1ccc(OC)c(-n2nnc(NC(=O)Nc3cccc(C(C)(C)C)c3)c2C)c1` [K4] registered an EC50 of 1.45 ± 0.25 µM. The “Agonist (% activation at 10 μM)” value in series [1] is recorded as “(103 ± 5)%”. The IC50 is above 30 µM in series [2], above 30 µM in series [3] and 0.39 ± 0.19 µM in series [4] (setting [5]). Also, in series [4], the inhibition at 10 µM was 24%.

`COc1ccc(OC)c(-n2nnc(C(=O)NS(=O)(=O)c3ccc(C(C)(C)C)cc3)c2C)c1` [K5, N-((4-(tert-butyl)phenyl)sulfonyl)-1-(2,5-dimethoxyphenyl)-5-methyl-1H-1,2,3-triazole-4-carboxamide] came in with an EC50 in series [1] of 7.46 ± 1.11 µM. Moreover, in series [1], the “Agonist (% activation at 10 μM)” value is given as “(32 ± 2)%”. In addition, the IC50 was above 30 µM in series [2], above 30 µM in series [3] and 10.7 ± 0.23 µM in series [4] (setting [5]). For the same compound, the inhibition at 10 µM in series [4] stood at 43%.

Consider `COc1ccc(OC)c(-n2nnc(S(=O)(=O)Nc3cccc(C(C)(C)C)c3)c2C)c1` [K6, N-(3-(tert-butyl)phenyl)-1-(2,5-dimethoxyphenvl)-5-methyl-1H-1,2,3-triazole-4-sulfonamide], for which the EC50 in series [1] worked out at 0.021 µM. The “Agonist (% activation at 10 μM)” value in series [1] is listed as “(136 ± 26)%”. In addition, the IC50 in series [2] was above 30 µM; in series [3], above 30 µM; in series [4] (setting [5]), 0.0147 ± 0.0026 µM. For the same compound, the inhibition at 10 µM in series [4] turned out to be 97%.

As to `COc1ccc(OC)c(-n2nnc(NS(=O)(=O)c3ccc(C(C)(C)C)cc3)c2C)c1` [K7], the EC50 in series [1] is 0.39 µM. In series [1], the “Agonist (% activation at 10 μM)” value is on record as “(68 ± 5)%”. Further, the results for the IC50 in series [2], in series [3] and in series [4] (setting [5]) were 10.7 ± 2.39 µM, above 30 µM and 0.33 µM, respectively. Besides, the inhibition at 10 µM is 25% in series [2] and 92% in series [4].

The values are drawn from patent US20250282736A1, “SMALL MOLECULE MODULATORS OF HUMAN PREGNANE X RECEPTOR” (ST. JUDE CHILDREN'S RESEARCH HOSPITAL, priority 2022, published 2025).
